From US8753673B2, “Liposome composition for delivery of a therapeutic agent to eyes” (Taiwan Liposome Co. Ltd., priority 2006, dated 2014)

How the values were obtained:
[1] = Fluorescein angiography (FAG) and visual observation of eyes in unilateral-CNV rats after i.v. injection; conditions: normal and CNV eyes, visual observation up to 24 hours
Experimental: Brown Norway (BN) pigmented rats, weighing between 200 and 250 gram, were anesthetized with intramuscular injection of 0.15 ml/kg of an equal-volume mixture of 2% lidocaine (Xylocalne; Astra, Astra Södertalje, Sweden) and 50 mg/mL ketamine (Ketalar; Parke-Davis, Morris Plains, N.J.). After anesthetizing, the right pupils were dilated with 1% tropicamide (1% Mydriacyl; Alcon Laboratories, Watford, UK). A small piece of transparent sheet (3M, Minneapolis, Minn.) approximately 3 mm in diameter was attached to the cornea by sodium hyaluronidase (Healon; Pharmacia and Upjohn, Inc., Kalamazoo, Mich.) to serve as a contact lens. Krypton laser (Novus Omni; Coherent, Palo Alto, Calif.) irradiation was delivered through a slit lamp (Carl Zeiss, Oberkochen, Germany). Laser parameters used were as follows: spot size of 100 mm, power of 120 to 160 mW, and exposure duration of 0.1 second. […] CNV was evaluated on day 14 by opthalmoscopy, fundus photography, and conventional fluorescein angiography (FAG) modified from (DiLoreto D, Grover D A, Del Cerro C. (1994) Curr Eye Res. 13, 157-61).
Fluorescein sodium (10%; 0.1 ml/kg; Fluorescite™; Alcon, Fort Worth, Tex.) was injected through the tail vein of the anesthetized rats 14 days after laser photocoagulation. The CNV lesions were recorded with a digital fundus camera (Retinal Angiography; Heidelberg Engineering, Heidelberg, Germany). […]

[2] = Bio-distribution of radioactivity in normal and CNV eyes of unilateral-CNV rats (γ scintillation counting after perfusion); format: in vivo, Brown Norway (BN) pigmented rats; conditions: for specific radioactivity, CNV eye: CNV (right) eye; for specific radioactivity, CNV eye / specific radioactivity, normal eye: i.v. 250 μCi, means ± s.d.; for specific radioactivity, normal eye: normal (left) eye
Experimental: (§1) In the process of monitoring the behavior of these animals, 2 to 3 out of the 10 rats were unable to walk straight. This abnormal behavior might be related to vision loss of the right eye as the result of laser photocoagulation. There were no other noticeable side effects observed in these rats.
After the SPECT, all rats were sacrificed and perfused with normal saline containing 2 mM EDTA. Animals were dissected to isolate both normal (left) and CNV (right) eyes. The isolated eyes were weighted and radioactivity associated with the eyes was counted by a γ scintillation counter (Cobra II Autogamma, Packed, USA). The uptake of radiotracer in the eyes or other tissues was expressed in counts per minute (cpm) with decay correction and was normalized as percent of injection dose per gram tissue (% ID/g).
The experiment determines the biodistribution of In^111, a small molecular marker and In^111-encapsulated liposome, a lipid nano-particle in an experimental CNV model. Ten unilateral CNV rats were randomly divided into two groups with 4 and 6 rats, respectively. Group 1 received 250 μCi of In^111-DTPA and group 2 received 250 μCi of In^111-encapsulated liposome by intravenous injection.

[3] = Single-photon emission computed tomography (SPECT) imaging of unilateral-CNV rats; format: in vivo, Brown Norway (BN) pigmented rats; conditions: 3, 24 and 48 hours after i.v. 250 μCi
Experimental: as §1
The SPECT imaging was carried out at 3, 24, and 48 hours after the injection of 250 μCi of either In^111-DTPA or In^111 encapsulated liposome. […] The center field of view was 25.4 cm^2 and a single energy centered window was used at […], with a width of 20%. A sequence of scans ([…]×6) was obtained over a period of 15 min. Images were reconstructed in a 128×128 (pixels) format from data with 32 projections distributed over 180° around the rat and a 40 s scan for each projection. The projections of each experiment were processed by reconstruction using filtered back projection, with a low-pass Butterworth filter of order 22.4 and cutoff frequency of 0.43. Each transverse image was reconstructed in a 128×128 array with a pixel size of 1.9×1.9 mm and a zoom of 2.0×.
The experiment determines the biodistribution of In^111, a small molecular marker and In^111-encapsulated liposome, a lipid nano-particle in an experimental CNV model. Ten unilateral CNV rats were randomly divided into two groups with 4 and 6 rats, respectively. […]

difference in specific radioactivity between the normal and CNV eyes ([2]; 24 and 48 hours post-injection)	specific radioactivity, CNV eye ([2]; 24 hours post injection) [% ID/g]	specific radioactivity, CNV eye ([2]; 48 hours post injection) [% ID/g]	specific radioactivity, normal eye ([2]; 24 hours post injection) [% ID/g]	specific radioactivity, normal eye ([2]; 48 hours post injection) [% ID/g]	Structure (SMILES)	visual appearance (colour) of the eyes after i.v. administration [1]	accumulation of radioactivity in eyes on SPECT images [3]
					O=C1OC2(c3ccc(O)cc3Oc3cc(O)ccc32)c2ccccc21 [fluorescein sodium, Fluorescein sodium]	greenish color quickly disappeared within an hour	
no difference	0.14 ± 0.09	0.13 ± 0.05	0.16 ± 0.04	0.14 ± 0.06	O=C([O-])CN(CCN(CC(=O)[O-])CC(=O)[O-])CCN(CC(=O)[O-])CC(=O)[O-].[111In+3].[H+].[H+] [In^111-DTPA]		did not show any In^111 accumulation in both normal and CNV eyes even at 3 hours
